Assay results as given in patent US6613572B2, “Agent for expression of long-term potentiation of synaptic transmission comprising compound having brain somatostatin activation property” (priority 1999, dated 2003).

What was measured:
rat hippocampal slice = test: Somatostatin release from rat hippocampal slice upon high K+ (50 mM) stimulation, radioimmunoassay; assay type: cell-based; details: property significant at 10^-7 M and 10^-6 M vs control (Dunnett)
Description: Rat hippocampal slices (thickness 350 μm, round slice) were prepared by a standard method. Twenty rat hippocampal slices were placed in a perfusion chamber, incubated at 37° C. and perfused by a batch method while exchanging the incubation buffer every 10 minutes. The incubation buffer used had the composition as noted below. A mixed gas of oxygen (95%) and carbon dioxide (5%) was used to saturate the buffer. Composition of incubation buffer: NaCl, 124 mM; KCl, 5 mM; KH2PO4, 1.24 mM; MgSO4, 1.3 mM; CaCl2, 2.4 mM; NaHCO3, 26 mM; D-glucose, 10 mM
Perfusion for 150 minutes gave fractions 1-15. To fraction 9 was applied a high K^+ (50 mM) stimulation. Compound 1 was added to fractions 7-15 to the concentration of 10^−9 M, 10^−7 M, […], 10^−6 M, respectively. […] The respective fractions thus obtained were concentrated by lyophilization and somatostatin in the perfusate was quantified by radioimmunoassay (RIA). After the completion of the experiment, somatostatin remaining in the slices was extracted by a conventional method and quantified by radioimmunoassay. The somatostatin amount released by high K^+ (50 mM) stimulation was calculated and the amount of somatostatin released due to the property of compound 1 was measured.
Somatostatin release (%) by compound 1 at each concentration was calculated as in the following. […] The number of the test samples measured was 10 or 11. […]

[1] = system: mossy fiber-CA3 field pyramidal cell of hippocampal slice; test: LTP in mossy fiber-CA3 field pyramidal cell of hippocampal slice, population spikes after tetanic stimulation; assay type: cell-based, guinea pig
Description: Slices (thickness 500 μm, round slice) were prepared from hippocampus removed from male Hartley guinea pigs (body weight 220-350 g) and population spikes were extracellularly recorded. The hippocampal slices were perfused with an artificial cerebrospinal fluid (33-34° C., composition: NaCl, 124 mM; KCl, 5 mM; KH2PO4, 1.24 mM; MgSO4, 1.3 mM; CaCl2, 2.4 mM; NaHCO3, 26 mM; D-glucose, 10 mM) saturated with a mixed gas of oxygen (95%) and carbon dioxide (5%) at flow rate of 1.8-2.0 ml/min. Mossy fiber was stimulated with a stimulating electrode at a voltage of not more than 10 V, frequency of 0.2 Hz and the population spikes in the CA3 field pyramidal cell layer was recorded every 5 minutes. When the population spikes to be recorded were stabilized, tetanic stimulation for induction of LTP was applied. The tetanic stimulation includes stimulation at the same voltage of not more than 10 V, as when the stimulation was applied at a frequency of 0.2 Hz, but upon increase of the frequency to 33 Hz for 5 seconds. The height of from negative peak to the next positive peak of the obtained population spikes after stimulation was measured and taken as an amplitude (population spike amplitude; PSA). The degree of LTP was expressed by a potential variation (%) by the increase in the amplitude of population spikes after tetanic stimulation relative to the average of 4 measurements of the amplitudes of population spikes obtained before tetanic stimulation. Each value was expressed by mean±S.E.M (the number of slices tested was 3 to 8). As the index of the property of a drug, the area (%·min) between the graph from 12 minutes to 62 minutes after tetanic stimulation and the line where the potential variation is 0%, in the time lapse graph of potential variation, was calculated and taken as the magnitude of LTP. Compound 1 was dissolved in and diluted with distilled water and added to perfusate to the concentration of 10^−9 M, 10^−8 M, 10^−7 M and 10^−6 M, respectively, and applied to a hippocmpal slice for […] from 2 minutes before the tetanic stimulation to 4 minutes thereafter. Nothing was added to perfusate for control group.
The property of compound 1 relative to the magnitude of LTP was tested by one-way analysis of variance and Dunnett's multiple comparison test.

[2] = system: voltage-dependent calcium channel of hippocampus pyramidal cells; test: Voltage-dependent Ca2+ current of rat hippocampus pyramidal cell, whole cell patch-clamp; assay type: cell-based
Description: Hippocampal slices were prepared from the brains of 5- to 14-day-old male Wistar rats and the nerve cells were quickly isolated by trypsin enzyme treatment method. According to the whole cell patch-clamp method, the membrane potential of hippocampus pyramidal cell was fixed at −80 mV and the membrane potential-dependent […] current (Ica) was measured in Cs^+ electrode inner solution and Ba^2+ bath outer solution. The resistance of the electrode was 2-4 MΩ. Compound 1 was added to bath outer solution concentrations of 0.01 μM, 0.1 μM and 1.0 μM, respectively, and perfused with the bath outer solution. Nothing was added to the bath outer solution for the control group. The maximal value of the current (peak amplitude) was measured, and calculated as the variation (%) relative to the value before addition of compound 1. Each value (%) was expressed by mean±S.E.M. The number of measurements was 7. The property of compound 1 was evaluated by Dunnett's multiple comparison test relative to the control group.

[3] = system: voltage-dependent calcium channel of hippocampus pyramidal cell; test: Effect of somatostatin and compound 1 on voltage-dependent Ca2+ current of rat hippocampus pyramidal cell; assay type: cell-based; details: compound 1 10^-7 M plus somatostatin 10^-7 M
Description: Hippocampal slices were prepared from the brains of 5- to 14-day-old male Wistar rats and the nerve cells were quickly isolated by trypsin enzyme treatment method. According to the whole cell patch-clamp method, the membrane potential of hippocampus pyramidal cell was fixed at −80 mV and the membrane potential-dependent […] current (Ica) was measured in Cs^+ electrode inner solution and Ba^2+ bath outer solution. The resistance of the electrode was 2-4 MΩ. Compound 1 was added to bath outer solution concentrations of 0.01 μM, 0.1 μM and 1.0 μM, respectively, and perfused with the bath outer solution. Nothing was added to the bath outer solution for the control group. The maximal value of the current (peak amplitude) was measured, and calculated as the variation (%) relative to the value before addition of compound 1. Each value (%) was expressed by mean±S.E.M. The number of measurements was 7. The property of compound 1 was evaluated by Dunnett's multiple comparison test relative to the control group. […]

CC(=O)N1CCN(NC(=O)c2ccc(F)cc2)CC1.O [Compound 1, N-(4-acetyl-1-piperazinyl)-p-fluorobenzamide monohydrate]
somatostatin release (%) (rat hippocampal slice): promoted somatostatin release | potential variation after tetanic stimulation (magnitude of LTP, 12 to 62 min) ([1]; at 10^-7 M and 10^-6 M): increased potential variation | response of base before tetanic stimulation (potential variation) ([1]; before tetanic stimulation, compound applied to slice in perfusate): no significant influence | LTP enhancing property in hippocampal slice from guinea pig treated with cysteamine ([1]; cysteamine 200 mg/kg, compound 1 at 10^-7 M): did not show LTP enhancing property | concentration at which the action on LTP was maximal ([1]; tested at 10^-9 to 10^-6 M): 10^−7 M | membrane potential-dependent calcium current (variation of peak amplitude) ([2]; 0.01 μM, 0.1 μM and 1.0 μM, compared to control group, holding -80 mV): significantly promoted | shape of dose dependency of the calcium current promotion ([2]; 0.01 to 1.0 μM): bell-shape dose dependency | suppressive property of somatostatin on calcium current in the presence of compound 1 [3]: completely released
